# Measured values: US8557574B2, “Fungal growth inhibitor” (Seikagaku Corporation, priority 2006, dated 2013)
# Tests used:
# Candida albicans [1] = experiment: Analysis of the activity of inhibiting Candida growth of HA (absorbance at 660 nm); type: cell-based; details: Candida albicans 5×10^5 cells/mL, 9 hours with HA of various concentration (0.1, 1.0 mg/mL) and weight average molecular weight; FIG. 3
# Protocol: Co-culture of HA and Candida was carried out in 100 μl of a medium using a 96 well plate (manufactured by Iwaki). Candida albicans was prepared by growing it at 37° C. overnight in the GP broth under an aerobic condition. The Candida albicans culture mixture was incubated at 37° C. for 9 hours under a condition of 10% CO2 in the presence of various final concentrations (0.1 mg/mL, 1.0 mg/mL) of HA having various sizes (tetradecasaccharide, weight average molecular weight 60 kDa, 250 kDa, 800 kDa or 2,000 kDa).
# (§1) After completion of the incubation, in order to evaluate the degree of growth of each Candida species, the culture medium was thoroughly mixed, and its absorbance at a wavelength of 660 nm was measured. Hereinafter, absorbance of the sample incubated in the presence of HA is referred to as “ODtest”. As a control, the absorbance at a wavelength of 660 nm was measured using a sample of each Candida species incubated in the same manner in the absence of HA. Hereinafter, absorbance of this control is referred to as “ODcontrol”.
# (§2) Growth inhibition ratio (%) was calculated from the value of “ODtest” and the value of “ODcontrol” of its corresponding Candida species based on the following formula. Growth inhibition ratio (%)=(1−ODtest/ODcontrol)×100 (1-5-2) Quantitative Plate Count […]
# [2] = test system: Candida glabrata ATCC 2001, Candida krusei ATCC 6258 and Candida tropicalis ATCC 4563; experiment: Activity of inhibiting growth for various Candida species by HA (absorbance at 660 nm); type: cell-based; details: other Candida species 5×10^5 cells/mL, 9 hours with HA of 2,000 kDa; FIG. 5
# Protocol: Additionally, other Candida species (Candida glabrata ATCC 2001, Candida krusei ATCC 6258 and Candida tropicalis ATCC 4563) were prepared by allowing them to grow at 37° C. overnight in the GP broth under an aerobic condition. Culture mixtures of these Candida species (cell density: 5×10^5) were incubated at 37° C. for 9 hours under a condition of 10% CO2 together with various final concentrations (0.1 mg/mL, 1.0 mg/mL) of HA having a weight average molecular weight of 2,000 kDa.
# as §1, §2
# Candida albicans [3] = experiment: Living body staining of Candida species (FDA/PI); type: cell-based; details: conclusion from living body staining
# Protocol: Co-culturing of an epithelial cell with a Candida species (effector:target ratio (to be referred to as “E:T” hereinafter) is 20:1, 40:1 or 80:1) was carried out in 100 μl of a medium using a 96 well plate (manufactured by Costar). After 9 hours of incubation, the co-culture mixture was recovered and washed twice. Fluorescein diacetate (which stain living cells, to be referred to as “FDA” hereinafter) (50 μg/mL) and propidium iodide (which stain dead cells, to be referred to as “PI” hereinafter)(1 μg/mL) (both manufactured by Sigma) (Adv. Biochem. Eng. Biotechnol., 62, p. 33-73 (1998), Anal. Chem., 37, p. 1219-1221 (1965)) were simultaneously added to the pellet of cells and incubated at room temperature for 20 minutes in the dark. In this connection, optimum concentrations of the respective pigments were determined by a preliminary test.
# After the incubation, the co-culture mixture was washed with PBS and then with PBS containing 20% FCS, respectively, and then again washed with PBS. The pellet was resuspended in 100 μl, of PBS, and a 5 μL thereof was put on a slide glass and observed under a fluorescent phase contrast microscope (DP-70 manufactured by Olympus Corporation). Growth inhibition of Candida species by the epithelial cell was confirmed by 9 hours of a growth inhibition assay. […]
# Candida albicans [4] = experiment: Candida growth inhibition by cells after removal of cell surface HA with hyaluronidase (quantitative plate count); type: cell-based; details: various concentrations of hyaluronidase, E:T 80:1, FIG. 2
# Protocol: The cells were treated using hyaluronidase (manufactured by Sigma) (50 units/10^6 cells) at 37° C. for 2 hours (J. Oral Sci., 45, p. 85-91 (2003)). The cells after the treatment were washed twice with phosphate buffered saline (pH 7.2, to be referred to as “PBS” hereinafter) and re-suspended in DMEM.
# In order to monitor growth inhibition of Candida albicans, a quantitative plate count method was used (J. Infect. Dis., 182, p. 1479-1485 (2000), Infect. Immun., 69, p. 7091-7099 (2001), Med. Mycol., 37, p. 251-259 (1999)). In briefly describing, a co-culture mixture of the same effector and target was incubated at 37° C. for 9 hours under a condition of 5% CO2. […] It was incubated at 30° C. for 48 hours, and the colony forming unit (to be referred to as “CFU” hereinafter) was counted. Hereinafter, counted value of CFU of the sample incubated in the presence of HA is referred to as “test CFU”.
# As a control, respective Candida species was incubated in the absence of HA, and this was subjected to the plating in the same manner. Hereinafter, counted value of CFU on the sample is referred to as “control CFU”.
# Growth inhibition ratio (%) was calculated from the value of “test CFU” and the value of “control CFU” of its corresponding Candida species based on the following formula. […]
# KB cells = experiment: MTT assay of hyaluronidase-treated cells; type: cell-based, human; details: hyaluronidase 10, 20 or 100 units/mL, data not shown
# Protocol: (§3) Assay of living cells was carried out in the same manner as in the reported reference (Infect. Immun., 69, p. 5925-5930 (2001)).
# (§4) In briefly describing, firstly, the COS-7 and KB cells were plated on a 96 well plate at a density of 5×10^5 cells/mL. Hyaluronidase (manufactured by Sigma) haying a respective concentration of 10, 20 or 100 units/mL was added to it, and Candida albicans was cultured for 20 hours. MTT solution (20 μg/mL) was added to each well at the final stage of the culturing, and the contents of the plate were incubated for 4 hours. By adding 100 μL of acidic isopropanol (isopropanol containing 0.04M HCl) to this, the red formazan was eluted and thoroughly mixed. Formazan concentration in the solution of each well was measured by a plate reader (manufactured by Dynex) using 570 nm as the testing wavelength and 620 nm as the reference wave length, respectively.
# COS-7 = experiment: MTT assay of hyaluronidase-treated cells; type: cell-based, Cercopithecus aetiopus; details: COS-7 cells, hyaluronidase 10, 20 or 100 units/mL; data not shown
# Protocol: as §3, §4
Substance,activity of inhibiting the Candida albicans growth (growth inhibition ratio) (Candida albicans [1]),activity of inhibiting growth for other Candida species (growth inhibition ratio) [2],nature of the activity of inhibiting Candida growth (bactericidal or bacteriostatic) (Candida albicans [3]),activity of inhibiting Candida growth of the COS-7 cell after hyaluronidase treatment (Candida albicans [4]),influence upon the life or death of the cells (MTT) (KB cells),influence upon the life or death of the cells (MTT) (COS-7)
hyaluronic acid [HA],has activity of inhibiting the Candida albicans growth,exerts its activity of inhibiting growth,not bactericidal but rather bacteriostatic,,,
hyaluronidase,,,,reduced,does not exert influence upon the life or death of the cells,does not exert influence upon the life or death of the cells
